Test results published in patent US5840684A, “Glycopeptide antibiotic derivatives” (Eli Lilly and Company, priority 1995, dated 1998).
In brackets after ≈: the same amount, converted by molar mass.

Columns and labels:
[1] = tested on: Staphylococcus aureus S13E; assay type: cell-based
Method: (§1) The MIC's were determined using a standard broth micro-dilution assay.

[2] = tested on: Entercoccus faecium 180-1; assay: broth micro-dilution MIC; assay type: cell-based
Method: as §1

Entercoccus faecium 276 = assay: broth micro-dilution MIC; assay type: cell-based
Method: as §1

[3] = tested on: Staphylococcus aureus 446; assay: broth micro-dilution MIC; assay type: cell-based
Method: as §1

[4] = tested on: Staphylococcus aureus 447; assay: broth micro-dilution MIC; assay type: cell-based
Method: as §1

[5] = tested on: Staphylococcus aureus 489; assay: broth micro-dilution MIC; assay type: cell-based
Method: as §1

[6] = tested on: Staphylococcus aureus 491; assay: broth micro-dilution MIC; assay type: cell-based
Method: as §1

[7] = tested on: Staphylococcus aureus SA1199A; assay: broth micro-dilution MIC; assay type: cell-based
Method: as §1

[8] = tested on: Staphylococcus aureus X400; assay: broth micro-dilution MIC; assay type: cell-based
Method: as §1

[9] = tested on: Staphylococcus aureus X778; assay: broth micro-dilution MIC; assay type: cell-based
Method: as §1

Entercoccus faecium 180 = assay: broth micro-dilution MIC; assay type: cell-based; details: Entercoccus faecium 180
Method: (§2) The formula I compounds have in vitro and in vivo activity against Gram-positive pathogenic bacteria. The MIC's were determined using a standard broth micro-dilution assay.

Entercoccus faecium 2041 = assay: broth micro-dilution MIC; assay type: cell-based; details: Entercoccus faecium 2041
Method: as §2

[10] = tested on: Enterococcus gallinarum 245; assay: broth micro-dilution MIC; assay type: cell-based; details: Enterococcus gallinarum 245
Method: as §2

[11] = tested on: Staphylococcus epidermidis 270; assay: broth micro-dilution MIC; assay type: cell-based
Method: as §2

[12] = tested on: Staphylococcus haemolyticus 105; assay: broth micro-dilution MIC; assay type: cell-based
Method: as §2

[13] = tested on: Staphylococcus haemolyticus 415; assay: broth micro-dilution MIC; assay type: cell-based
Method: as §2

[14] = tested on: vancomycin-resistant enterococci; assay: broth micro-dilution, mean geometric MIC; assay type: cell-based, Enterococcus faecium and Enterococcus faecalis; details: enterococci, 24-hour incubation
[15] = tested on: vancomycin-susceptible enterococci; assay: broth micro-dilution, mean geometric MIC; assay type: cell-based, Enterococcus faecium and Enterococcus faecalis; details: enterococci, 24-hour incubation
[16] = tested on: Staphylococcus aureus SA1199B; assay type: cell-based
Method: as §1

[17] = tested on: Streptococcus pyogenes C203; assay: broth micro-dilution MIC; assay type: cell-based
Method: as §1

[18] = tested on: Streptococcus pneumoniae P1; assay: broth micro-dilution MIC; assay type: cell-based
Method: as §2

Structure (SMILES)	MIC [1] [µg/mL]	MIC [2] [µg/mL]	MIC (Entercoccus faecium 276) [µg/mL]	MIC [3] [µg/mL]	MIC [4] [µg/mL]	MIC [5] [µg/mL]	MIC [6] [µg/mL]	MIC [7] [µg/mL]	MIC [8] [µg/mL]	MIC [9] [µg/mL]	MIC (Entercoccus faecium 180) [µg/mL]	MIC (Entercoccus faecium 2041) [µg/mL]	MIC [10] [µg/mL]	MIC [11] [µg/mL]	MIC [12] [µg/mL]	MIC [13] [µg/mL]	mean geometric MIC, Vancomycin Resistant Strains [14] [µg/mL]	mean geometric MIC, Vancomycin Sensitive Strains [15] [µg/mL]	MIC [17] [µg/mL]	MIC [18] [µg/mL]	other results
CNC(CC(C)C)C(=O)NC1C(=O)NC(CC(N)=O)C(=O)NC2C(=O)NC3C(=O)NC(C(=O)NC(C(=O)O)c4cc(O)cc(O)c4-c4cc3ccc4O)C(OC3CC(C)(N)C(O)C(C)O3)c3ccc(c(Cl)c3)Oc3cc2cc(c3OC2OC(CO)C(O)C(O)C2OC2CC(C)(NCc3cnc4ccccc4c3)C(O)C(C)O2)Oc2ccc(cc2Cl)C1O (stereo not shown) [Compound 28]	≤ 0.06	≤ 0.06	≤ 0.06	0.25 (≈ 0.144 µM)	1 (≈ 0.577 µM)	≤ 0.06	0.25 (≈ 0.144 µM)	≤ 0.06	≤ 0.06	≤ 0.06	1 (≈ 0.577 µM)	0.25 (≈ 0.144 µM)	0.25 (≈ 0.144 µM)	1 (≈ 0.577 µM)	4 (≈ 2.31 µM)	8 (≈ 4.61 µM)	4.7	0.71			
CNC(CC(C)C)C(=O)NC1C(=O)NC(CC(N)=O)C(=O)NC2C(=O)NC3C(=O)NC(C(=O)NC(C(=O)O)c4cc(O)cc(O)c4-c4cc3ccc4O)C(OC3CC(C)(N)C(O)C(C)O3)c3ccc(c(Cl)c3)Oc3cc2cc(c3OC2OC(CO)C(O)C(O)C2OC2CC(C)(NCc3ccc(O)c(O)c3)C(O)C(C)O2)Oc2ccc(cc2Cl)C1O (stereo not shown) [Compound 145]	0.125 (≈ 0.0729 µM)	≤ 0.06	0.125 (≈ 0.0729 µM)	0.5 (≈ 0.292 µM)	1 (≈ 0.583 µM)	≤ 0.06	0.5 (≈ 0.292 µM)	≤ 0.06		0.125 (≈ 0.0729 µM)	4 (≈ 2.33 µM)			1 (≈ 0.583 µM)	2 (≈ 1.17 µM)	8 (≈ 4.67 µM)		1.3	≤ 0.06	≤ 0.06	MIC [16]: ≤ 0.06 µg/mL
CC#CCCCCCCCCCCOc1ccc(CNC2(C)CC(OC3C(Oc4c5cc6cc4Oc4ccc(cc4Cl)C(OC4CC(C)(N)C(O)C(C)O4)C4NC(=O)C(NC(=O)C6NC(=O)C(CC(N)=O)NC(=O)C(NC(=O)C(CC(C)C)NC)C(O)c6ccc(c(Cl)c6)O5)c5ccc(O)c(c5)-c5c(O)cc(O)cc5C(C(=O)O)NC4=O)OC(CO)C(O)C3O)OC(C)C2O)cc1 (stereo not shown) [Compound 233]	8 (≈ 4.26 µM)	2 (≈ 1.07 µM)	8 (≈ 4.26 µM)	4 (≈ 2.13 µM)		4 (≈ 2.13 µM)	8 (≈ 4.26 µM)	4 (≈ 2.13 µM)	8 (≈ 4.26 µM)	8 (≈ 4.26 µM)	2 (≈ 1.07 µM)	2 (≈ 1.07 µM)		8 (≈ 4.26 µM)			1.7	1.7		0.5 (≈ 0.266 µM)	
CNC(CC(C)C)C(=O)NC1C(=O)NC(CC(N)=O)C(=O)NC2C(=O)NC3C(=O)NC(C(=O)NC(C(=O)O)c4cc(O)cc(O)c4-c4cc3ccc4O)C(OC3CC(C)(N)C(O)C(C)O3)c3ccc(c(Cl)c3)Oc3cc2cc(c3OC2OC(CO)C(O)C(O)C2OC2CC(C)(NCc3cncc(-c4ccccc4)c3)C(O)C(C)O2)Oc2ccc(cc2Cl)C1O (stereo not shown) [Compound 101]		≤ 0.06	0.125 (≈ 0.071 µM)	0.5 (≈ 0.284 µM)	1 (≈ 0.568 µM)	≤ 0.06	0.5 (≈ 0.284 µM)	0.5 (≈ 0.284 µM)	≤ 0.06			≤ 0.06	8 (≈ 4.55 µM)	0.5 (≈ 0.284 µM)	1 (≈ 0.568 µM)	8 (≈ 4.55 µM)	4.0		≤ 0.06	≤ 0.06	MIC [16]: 1 µg/mL (≈ 0.568 µM)
CNC(CC(C)C)C(=O)NC1C(=O)NC(CC(N)=O)C(=O)NC2C(=O)NC3C(=O)NC(C(=O)NC(C(=O)O)c4cc(O)cc(O)c4-c4cc3ccc4O)C(OC3CC(C)(N)C(O)C(C)O3)c3ccc(c(Cl)c3)Oc3cc2cc(c3OC2OC(CO)C(O)C(O)C2OC2CC(C)(NCc3ccc(OCC(O)CO)cc3)C(O)C(C)O2)Oc2ccc(cc2Cl)C1O (stereo not shown) [Compound 177]		≤ 0.06		0.5 (≈ 0.282 µM)	4 (≈ 2.26 µM)	≤ 0.06	0.5 (≈ 0.282 µM)	0.5 (≈ 0.282 µM)	≤ 0.06	2 (≈ 1.13 µM)	4 (≈ 2.26 µM)		16 (≈ 9.03 µM)	1 (≈ 0.564 µM)	4 (≈ 2.26 µM)	16 (≈ 9.03 µM)			16 (≈ 9.03 µM)	8 (≈ 4.51 µM)	
CNC(CC(C)C)C(=O)NC1C(=O)NC(CC(N)=O)C(=O)NC2C(=O)NC3C(=O)NC(C(=O)NC(C(=O)O)c4cc(O)cc(O)c4-c4cc3ccc4O)C(O)c3ccc(c(Cl)c3)Oc3cc2cc(c3OC2OC(CO)C(O)C(O)C2OC2CC(C)(NCc3cccc4ccccc34)C(O)C(C)O2)Oc2ccc(cc2Cl)C1O (stereo not shown) [Compound 180]	≤ 0.06		2 (≈ 1.26 µM)			≤ 0.06	0.5 (≈ 0.315 µM)	≤ 0.06	≤ 0.06	≤ 0.06	8 (≈ 5.03 µM)	0.25 (≈ 0.157 µM)	0.25 (≈ 0.157 µM)		2 (≈ 1.26 µM)	2 (≈ 1.26 µM)	> 128	0.71	≤ 0.06	≤ 0.06	MIC [16]: ≤ 0.06 µg/mL
CCCCCCCC#Cc1ccc(CN[C@@]2(C)C[C@H](O[C@H]3[C@H](Oc4c5cc6cc4Oc4ccc(cc4Cl)[C@@H](O[C@H]4C[C@](C)(N)[C@@H](O)[C@H](C)O4)[C@@H]4NC(=O)[C@H](NC(=O)[C@@H]6NC(=O)[C@H](CC(N)=O)NC(=O)[C@H](NC(=O)[C@@H](CC(C)C)NC)[C@H](O)c6ccc(c(Cl)c6)O5)c5ccc(O)c(c5)-c5c(O)cc(O)cc5[C@@H](C(=O)O)NC4=O)O[C@H](CO)[C@@H](O)[C@@H]3O)O[C@@H](C)[C@@H]2O)cc1 [Compound 232]	8 (≈ 4.43 µM)	1 (≈ 0.554 µM)	8 (≈ 4.43 µM)	4 (≈ 2.22 µM)		8 (≈ 4.43 µM)	4 (≈ 2.22 µM)	2 (≈ 1.11 µM)	8 (≈ 4.43 µM)	8 (≈ 4.43 µM)	0.5 (≈ 0.277 µM)	2 (≈ 1.11 µM)	32 (≈ 17.7 µM)	8 (≈ 4.43 µM)	2 (≈ 1.11 µM)	32 (≈ 17.7 µM)	0.71	0.29	≤ 0.06	≤ 0.06	MIC [16]: 32 µg/mL (≈ 17.7 µM)
CNC(CC(C)C)C(=O)NC1C(=O)NC(CC(N)=O)C(=O)NC2C(=O)NC3C(=O)NC(C(=O)NC(C(=O)O)c4cc(O)cc(O)c4-c4cc3ccc4O)C(OC3CC(C)(N)C(O)C(C)O3)c3ccc(c(Cl)c3)Oc3cc2cc(c3OC2OC(CO)C(O)C(O)C2OC2CC(C)(NCc3cccc(OC(=O)C4CCCCC4)c3)C(O)C(C)O2)Oc2ccc(cc2Cl)C1O (stereo not shown) [Compound 165]	≤ 0.06	≤ 0.06	0.5 (≈ 0.276 µM)	1 (≈ 0.553 µM)	0.5 (≈ 0.276 µM)	2 (≈ 1.11 µM)	0.5 (≈ 0.276 µM)	≤ 0.06	0.5 (≈ 0.276 µM)		0.5 (≈ 0.276 µM)	≤ 0.06	4 (≈ 2.21 µM)	1 (≈ 0.553 µM)	4 (≈ 2.21 µM)	4 (≈ 2.21 µM)	4.0	0.062	≤ 0.06	≤ 0.06	MIC [16]: 1 µg/mL (≈ 0.553 µM)
